Results as given in patent publication US6124269A, “2-Halo-6-O-substituted ketolide derivatives” (priority 1998, dated 2000).
In brackets after ≈: the same amount, converted by molar mass.

Legend:
Type in all cases: cell-based
[1] = test system: Staphylococcus aureus ATCC 6538P; assay: In vitro agar dilution MIC, organism code AA; conditions: unit assumed
Experimental: (§1) Representative compounds of the present invention were assayed in vitro for antibacterial activity as follows: Twelve petri dishes containing successive aqueous dilutions of the test compound mixed with 10 mL of sterilized Brain Heart Infusion (BHI) agar (Difco 0418-01-5) were prepared. Each plate was inoculated with 1:100 (or 1:10 for slow-growing strains, such as Micrococcus and Streptococcus) dilutions of up to 32 different microorganisms, using a Steers replicator block. The inoculated plates were incubated at 35-37° C. for 20 to 24 hours. In addition, a control plate, using BHI agar containing no test compound, was prepared and incubated at the beginning and end of each test.
(§2) An additional plate containing a compound having known susceptibility patterns for the organisms being tested and belonging to the same antibiotic class as the test compound was also prepared and incubated as a further control, as well as to provide test-to-test comparability.
(§3) After incubation, each plate was visually inspected. The minimum inhibitory concentration (MIC) was defined as the lowest concentration of drug yielding no growth, a slight haze, or sparsely isolated colonies on the inoculum spot as compared to the growth control.

[2] = test system: Staphylococcus aureus A5177; assay: In vitro agar dilution MIC, organism code BB; conditions: in µg/mL (unit assumed)
Experimental: as §1, §2, §3

[3] = test system: Staphylococcus aureus A-5278; assay: In vitro agar dilution MIC, organism code CC; conditions: unit assumed
Experimental: as §1, §2, §3

[4] = test system: Staphylococcus aureus CMX 642A; assay: In vitro agar dilution MIC, organism code DD; conditions: Table 1B, unit assumed
Experimental: as §1, §2, §3

[5] = test system: Staphylococcus aureus NCTC10649M; assay: In vitro agar dilution MIC, organism code EE; conditions: Table 1B, unit assumed
Experimental: as §1, §2, §3

[6] = test system: Staphylococcus aureus CMX 553; assay: In vitro agar dilution MIC, organism code FF; conditions: Table 1B, unit assumed
Experimental: as §1, §2, §3

[7] = test system: Staphylococcus aureus 1775; assay: In vitro agar dilution MIC, organism code GG; conditions: Table 1B, unit assumed
Experimental: as §1, §2, §3

[8] = test system: Staphylococcus epidermidis 3519; assay: In vitro agar dilution MIC, organism code HH; conditions: Table 1B, in µg/mL (unit assumed)
Experimental: as §1, §2, §3

[9] = test system: Enterococcus faecium ATCC 8043; assay: In vitro agar dilution MIC, organism code II; conditions: Table 1B, unit assumed
Experimental: as §1, §2, §3

[10] = test system: Streptococcus bovis A-5169; assay: In vitro agar dilution MIC, organism code JJ; conditions: Table 1B, unit assumed
Experimental: as §1, §2, §3

[11] = test system: Streptococcus agalactiae CMX 508; assay: In vitro agar dilution MIC, organism code KK; conditions: Table 1B, unit assumed
Experimental: as §1, §2, §3

[12] = test system: Streptococcus pyogenes EES61; assay: In vitro agar dilution MIC, organism code LL; conditions: unit assumed
Experimental: as §1, §2, §3

[13] = test system: Streptococcus pyogenes 930; assay: In vitro agar dilution MIC, organism code MM; conditions: unit assumed
Experimental: as §1, §2, §3

[14] = test system: Streptococcus pyogenes PIU 2548; assay: In vitro agar dilution MIC, organism code NN; conditions: Table 1B, unit assumed
Experimental: as §1, §2, §3

[15] = test system: Micrococcus luteus ATCC 9341; assay: In vitro agar dilution MIC, organism code OO; conditions: Table 1B, unit assumed
Experimental: as §1, §2, §3

[16] = test system: Micrococcus luteus ATCC 4698; assay: In vitro agar dilution MIC, organism code PP; conditions: Table 1B, in µg/mL (unit assumed)
Experimental: as §1, §2, §3

[17] = test system: Escherichia coli JUHL; assay: In vitro agar dilution MIC, organism code QQ; conditions: Table 1B, in µg/mL (unit assumed)
Experimental: as §1, §2, §3

[18] = test system: Escherichia coli SS; assay: In vitro agar dilution MIC, organism code RR; conditions: Table 1B, in µg/mL (unit assumed)
Experimental: as §1, §2, §3

[19] = test system: Escherichia coli DC-2; assay: In vitro agar dilution MIC, organism code SS; conditions: Table 1B, unit assumed
Experimental: as §1, §2, §3

[20] = test system: Candida albicans CCH 442; assay: In vitro agar dilution MIC, organism code TT; conditions: Table 1B, unit assumed
Experimental: as §1, §2, §3

[21] = test system: Mycobacterium smegmatis ATCC 114; assay: In vitro agar dilution MIC, organism code UU; conditions: Table 1B, in µg/mL (unit assumed)
Experimental: as §1, §2, §3

[22] = test system: Nocardia asteroides ATCC 9970; assay: In vitro agar dilution MIC, organism code VV; conditions: Table 1B, in µg/mL (unit assumed)
Experimental: as §1
as §2, with “comparability. Erythromycin A was used for this purpose.” for “comparability.”
as §3

[23] = test system: Haemophilis influenzae DILL AMP R; assay: In vitro agar dilution MIC, organism code WW; conditions: unit assumed
Experimental: as §1, §2, §3

[24] = test system: Streptococcus pneumoniae ATCC 6303; assay: In vitro agar dilution MIC, organism code XX; conditions: unit assumed
Experimental: as §1, §2, §3

[25] = test system: Streptococcus pneumoniae GYR 1171; assay: In vitro agar dilution MIC, organism code YY; conditions: Table 1B, unit assumed
Experimental: as §1, §2, §3

[26] = test system: Streptococcus pneumoniae 5979; assay: In vitro agar dilution MIC, organism code ZZ; conditions: unit assumed
Experimental: as §1, §2, §3

[27] = test system: Streptococcus pneumoniae 5649; assay: In vitro agar dilution MIC, organism code ZZA; conditions: unit assumed
Experimental: as §1, §2, §3

Structure (SMILES) | MIC ([1]; Table 1B) [µg/mL] | MIC ([2]; Table 1B) | MIC ([3]; Table 1B) [µg/mL] | MIC [4] [µg/mL] | MIC [5] [µg/mL] | MIC [6] [µg/mL] | MIC [7] [µg/mL] | MIC [8] | MIC [9] [µg/mL] | MIC [10] [µg/mL] | MIC [11] [µg/mL] | MIC ([12]; Table 1B) [µg/mL] | MIC ([13]; Table 1B) [µg/mL] | MIC [14] [µg/mL] | MIC [15] [µg/mL] | MIC [16] | MIC [17] | MIC [18] | MIC [19] [µg/mL] | MIC [20] [µg/mL] | also measured
CC[C@H]1OC(=O)[C@@](C)(F)C(=O)[C@H](C)[C@@H](O[C@@H]2O[C@H](C)C[C@H](N(C)C)[C@H]2O)[C@](C)(OC/C=C/c2cnc3ccc(N(C)C)cc3c2)C[C@@H](C)C(=O)[C@H](C)[C@H]2NC(=O)O[C@@]21C [Example 13] | 0.2 (≈ 0.242 µM) | 0.2 | > 100 | 0.2 (≈ 0.242 µM) | 0.2 (≈ 0.242 µM) | 0.2 (≈ 0.242 µM) | > 100 | 0.2 | 0.1 (≈ 0.121 µM) | 0.02 (≈ 0.0242 µM) | 0.02 (≈ 0.0242 µM) | 0.05 (≈ 0.0605 µM) | 0.78 (≈ 0.943 µM) | 0.2 (≈ 0.242 µM) | 0.02 (≈ 0.0242 µM) | 0.2 | 50 | 0.78 | 100 (≈ 121 µM) | > 100 | MIC [21]: 0.78; MIC [22]: 0.05; MIC ([23]; Table 1B): 8 µg/mL (≈ 9.67 µM); MIC ([24]; Table 1B): 0.06 µg/mL (≈ 0.0726 µM); MIC [25]: 0.06 µg/mL (≈ 0.0726 µM); MIC ([26]; Table 1B): 1 µg/mL (≈ 1.21 µM); MIC ([27]; Table 1B): 0.5 µg/mL (≈ 0.605 µM)
CC[C@H]1OC(=O)[C@@](C)(F)C(=O)[C@H](C)[C@@H](O[C@@H]2O[C@H](C)C[C@H](N(C)C)[C@H]2O)[C@](C)(OC/C=C/c2cnc3ccc(NC)cc3c2)C[C@@H](C)C(=O)[C@H](C)[C@H]2NC(=O)O[C@@]21C [Example 16] | 0.05 (≈ 0.0615 µM) | 0.05 | > 100 | 0.05 (≈ 0.0615 µM) | 0.05 (≈ 0.0615 µM) | 0.05 (≈ 0.0615 µM) | > 100 | 0.05 | 0.02 (≈ 0.0246 µM) | ≤ 0.005 | 0.01 (≈ 0.0123 µM) | 0.01 (≈ 0.0123 µM) | 0.39 (≈ 0.48 µM) | 0.05 (≈ 0.0615 µM) | 0.01 (≈ 0.0123 µM) | 0.05 | 50 | 0.2 | 50 (≈ 61.5 µM) | > 100 | MIC [21]: 0.39; MIC [22]: 0.01; MIC ([23]; Table 1B): 2 µg/mL (≈ 2.46 µM); MIC ([24]; Table 1B): 0.03 µg/mL (≈ 0.0369 µM); MIC [25]: 0.03 µg/mL (≈ 0.0369 µM); MIC ([26]; Table 1B): 1 µg/mL (≈ 1.23 µM); MIC ([27]; Table 1B): 0.25 µg/mL (≈ 0.308 µM)
CC[C@H]1OC(=O)C(C)(F)C(=O)[C@H](C)[C@@H](O[C@@H]2O[C@H](C)C[C@H](N(C)C)[C@H]2O)[C@](C)(OCC#CC(=O)c2ccc(Cl)nc2)C[C@@H](C)C(=O)[C@H](C)[C@H]2NC(=O)O[C@@]21C (stereo partly shown) [Example 25] | 0.39 (≈ 0.491 µM) | 0.39 | > 100 | 0.39 (≈ 0.491 µM) | 0.78 (≈ 0.982 µM) | 0.39 (≈ 0.491 µM) | > 100 | 0.39 | 0.2 (≈ 0.252 µM) | 0.1 (≈ 0.126 µM) | 0.1 (≈ 0.126 µM) | 0.1 (≈ 0.126 µM) | 6.2 (≈ 7.81 µM) | 0.39 (≈ 0.491 µM) | 0.2 (≈ 0.252 µM) | 0.39 | > 100 | 3.1 | > 100 | > 100 | MIC [21]: 0.78; MIC [22]: 0.2; MIC ([23]; Table 1B): 2 µg/mL (≈ 2.52 µM); MIC ([24]; Table 1B): ≤ 0.004 µg/mL; MIC [25]: ≤ 0.004 µg/mL; MIC ([26]; Table 1B): 0.06 µg/mL (≈ 0.0755 µM); MIC ([27]; Table 1B): 0.06 µg/mL (≈ 0.0755 µM)
CC[C@H]1OC(=O)C(C)(Br)C(=O)[C@H](C)[C@@H](O[C@@H]2O[C@H](C)C[C@H](N(C)C)[C@H]2O)[C@](C)(OC)C[C@@H](C)C2=NCCN3C(=O)O[C@@]1(C)[C@H]3[C@H]2C (stereo partly shown) [Example 3] | 0.39 (≈ 0.544 µM) | 0.39 | > 100 | 0.39 (≈ 0.544 µM) | 0.39 (≈ 0.544 µM) | 0.39 (≈ 0.544 µM) | > 100 | 0.39 | 0.1 (≈ 0.14 µM) | 0.2 (≈ 0.279 µM) | 0.2 (≈ 0.279 µM) | 0.05 (≈ 0.0698 µM) | > 100 | 0.39 (≈ 0.544 µM) | 0.05 (≈ 0.0698 µM) | 0.39 | > 100 | 0.39 | > 100 | > 100 | MIC ([1]; Table 1C): 0.78 µg/mL (≈ 1.09 µM); MIC ([2]; Table 1C): 0.78; MIC ([3]; Table 1C): > 100 µg/mL; MIC ([12]; Table 1C): < 0.125 µg/mL; MIC ([13]; Table 1C): 128 µg/mL (≈ 179 µM); MIC [21]: 1.56; MIC [22]: 0.39; MIC ([23]; Table 1B): 8 µg/mL (≈ 11.2 µM); MIC ([23]; Table 1C): 8 µg/mL (≈ 11.2 µM); MIC ([24]; Table 1C): 0.25 µg/mL (≈ 0.349 µM); MIC [25]: 0.125 µg/mL (≈ 0.174 µM); MIC ([26]; Table 1C): > 128 µg/mL; MIC ([27]; Table 1B): 2 µg/mL (≈ 2.79 µM); MIC ([27]; Table 1C): 1 µg/mL (≈ 1.4 µM)
